# The source made the active and inactive calls. The rule behind the calls is not given here.
# Legend:
# U-251 [1] = assay: Inhibition of PARP1/2-mediated DNA repair in human U-251 cells assessed as increase in […] expression at 1 to 10 uM after 24 hrs in absence of TMZ by Western blot analysis; format: cell-based; details: dose 1-10 µM
# T98G [2] = assay: Inhibition of PARP1/2-mediated DNA repair in human T98G cells assessed as increase in […] expression at 1 to 10 uM after 24 hrs in absence of TMZ by Western blot analysis; format: cell-based; details: dose 1-10 µM
# U-251 [3] = assay: Inhibition of PARP1/2-mediated DNA repair in human U-251 cells assessed as reduction in PAR formation at 1 to 10 uM after 24 hrs in absence of TMZ by Western blot analysis; format: cell-based; details: dose 1-10 µM
# T98G [4] = assay: Inhibition of PARP1/2-mediated DNA repair in human T98G cells assessed as reduction in PAR formation at 1 to 10 uM after 24 hrs in absence of TMZ by Western blot analysis; format: cell-based; details: dose 1-10 µM
# T98G [5] = assay: Inhibition of PARP1/2-mediated DNA repair in human T98G cells assessed as reduction in PAR formation at 1 to 10 uM after 24 hrs in presence of TMZ by Western blot analysis; format: cell-based; details: dose 1-10 µM
# U-87 MG [6] = assay: Cytotoxicity against human U87MG cells assessed as reduction in cell viability at 5 to 10 uM incubated for 72 hrs in presence of TMZ by MTT assay; format: functional, cell-based; details: U-87MG ATCC, dose 5-10 µM
# U-251 [7] = assay: Cytotoxicity against human U251 cells assessed as reduction in cell viability at 5 to 10 uM incubated for 72 hrs in presence of TMZ by MTT assay; format: functional, cell-based; details: dose 5-10 µM
# A 172 = assay: Cytotoxicity against human A172 cells assessed as reduction in cell viability at 5 to 10 uM incubated for 72 hrs in presence of TMZ by MTT assay; format: functional, cell-based; details: dose 5-10 µM
# T98G [8] = assay: Cytotoxicity against human T98G cells assessed as reduction in cell viability at 5 to 10 uM incubated for 72 hrs in presence of TMZ by MTT assay; format: functional, cell-based; details: dose 5-10 µM
# U-251 [9] = assay: Cytotoxicity against TMZ-resistant human U-251 cells assessed as reduction in cell viability at 5 to 10 uM incubated for 72 hrs in presence of TMZ by MTT assay; format: functional, cell-based; details: dose 5-10 µM
# [10] = target: T1, Poly [ADP-ribose] polymerase 1 (Homo sapiens, UniProt P09874); assay: Binding affinity to recombinant human PARP1 assessed as dissociation constant by SPR assay
# T1 sequence (P09874 whole entry): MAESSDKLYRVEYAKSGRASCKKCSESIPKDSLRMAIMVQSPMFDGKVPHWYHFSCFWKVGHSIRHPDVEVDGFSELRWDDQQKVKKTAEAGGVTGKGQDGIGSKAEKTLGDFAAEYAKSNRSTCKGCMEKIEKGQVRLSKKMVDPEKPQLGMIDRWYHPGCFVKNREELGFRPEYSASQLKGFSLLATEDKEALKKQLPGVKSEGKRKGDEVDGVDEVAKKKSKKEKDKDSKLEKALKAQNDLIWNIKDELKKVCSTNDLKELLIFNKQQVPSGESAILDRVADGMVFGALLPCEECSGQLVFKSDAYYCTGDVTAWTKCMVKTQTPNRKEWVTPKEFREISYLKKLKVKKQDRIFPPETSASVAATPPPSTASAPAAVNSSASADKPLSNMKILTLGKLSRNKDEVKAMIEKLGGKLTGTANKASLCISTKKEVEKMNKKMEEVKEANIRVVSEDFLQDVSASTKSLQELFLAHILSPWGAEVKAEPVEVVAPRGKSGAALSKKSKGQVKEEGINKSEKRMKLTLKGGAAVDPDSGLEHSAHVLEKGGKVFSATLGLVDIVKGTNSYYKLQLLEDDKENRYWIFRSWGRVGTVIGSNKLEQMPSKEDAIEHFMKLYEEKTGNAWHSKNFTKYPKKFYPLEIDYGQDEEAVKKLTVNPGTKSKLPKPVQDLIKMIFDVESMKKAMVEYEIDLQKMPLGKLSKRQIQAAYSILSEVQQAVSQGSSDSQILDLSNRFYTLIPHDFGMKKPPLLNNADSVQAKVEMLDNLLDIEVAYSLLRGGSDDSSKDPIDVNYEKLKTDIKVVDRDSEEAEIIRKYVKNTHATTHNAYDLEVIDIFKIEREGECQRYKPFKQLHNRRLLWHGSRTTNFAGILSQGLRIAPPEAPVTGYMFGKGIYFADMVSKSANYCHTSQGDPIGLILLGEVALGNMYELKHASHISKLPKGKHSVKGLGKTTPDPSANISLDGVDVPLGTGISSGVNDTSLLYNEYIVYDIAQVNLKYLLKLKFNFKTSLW
# [11] = target: T2, Poly [ADP-ribose] polymerase 2 (Homo sapiens, UniProt Q9UGN5); assay: Binding affinity to recombinant human PARP2 assessed as dissociation constant by SPR assay
# T2 sequence (Q9UGN5 whole entry): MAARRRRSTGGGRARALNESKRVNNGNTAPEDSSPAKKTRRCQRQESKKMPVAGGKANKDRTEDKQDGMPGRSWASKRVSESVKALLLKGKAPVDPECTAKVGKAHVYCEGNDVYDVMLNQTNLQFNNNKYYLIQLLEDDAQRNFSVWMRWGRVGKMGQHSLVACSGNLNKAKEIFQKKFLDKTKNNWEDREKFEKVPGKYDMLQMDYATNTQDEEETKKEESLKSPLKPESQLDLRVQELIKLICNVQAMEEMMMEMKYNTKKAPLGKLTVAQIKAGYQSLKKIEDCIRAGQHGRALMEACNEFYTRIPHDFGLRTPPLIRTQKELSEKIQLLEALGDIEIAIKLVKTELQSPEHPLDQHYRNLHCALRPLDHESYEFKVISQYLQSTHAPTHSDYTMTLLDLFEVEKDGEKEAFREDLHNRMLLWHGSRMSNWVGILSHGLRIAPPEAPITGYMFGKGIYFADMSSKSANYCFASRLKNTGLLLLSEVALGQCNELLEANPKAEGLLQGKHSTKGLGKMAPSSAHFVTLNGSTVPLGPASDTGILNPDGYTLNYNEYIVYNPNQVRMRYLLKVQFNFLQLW
# [12] = target: T1, Poly [ADP-ribose] polymerase 1; assay: Binding affinity to recombinant human PARP1 assessed as dissociation half life by SPR assay
# [13] = target: T2, Poly [ADP-ribose] polymerase 2; assay: Binding affinity to recombinant human PARP2 assessed as dissociation half life by SPR assay
# [14] = Tmax in BALB/c mouse at 25 mg/kg, po measured upto 24 hrs by LC-MS/MS analysis; format: ADME, organism-based; details: in vivo
# [15] = Tmax in Beagle dog at 20 mg/kg, po measured upto 24 hrs by LC-MS/MS analysis; format: ADME, organism-based, Canis lupus familiaris; details: in vivo
# [16] = Cmax in Sprague-Dawley rat at 20 mg/kg, po measured upto 24 hrs by LC-MS/MS analysis; format: ADME, organism-based; parameters: time < 24 hrs, dose 20 mg/kg, route po; details: in vivo
# [17] = Cmax in Beagle dog at 20 mg/kg, po measured upto 24 hrs by LC-MS/MS analysis; format: ADME, organism-based, Canis lupus familiaris; parameters: time < 24 hrs, dose 20 mg/kg, route po; details: in vivo
# [18] = Cmax in Beagle dog at 0.4 mg/kg, iv measured upto 24 hrs by LC-MS/MS analysis; format: ADME, organism-based, Canis lupus familiaris; parameters: time < 24 hrs, dose 0.4 mg/kg, route iv; details: in vivo
# [19] = AUC(0 to t) in Beagle dog at 0.4 mg/kg, iv measured upto 24 hrs by LC-MS/MS analysis; format: ADME, organism-based, Canis lupus familiaris; parameters: time < 24 hrs, dose 0.4 mg/kg, route iv; details: in vivo
# [20] = AUC(0 to infinity) in BALB/c mouse at 25 mg/kg, po measured upto 24 hrs by LC-MS/MS analysis; format: ADME, organism-based; parameters: time < 24 hrs, dose 25 mg/kg, route po; details: in vivo
# [21] = AUC(0 to infinity) in Sprague-Dawley rat at 20 mg/kg, po measured upto 24 hrs by LC-MS/MS analysis; format: ADME, organism-based; parameters: time < 24 hrs, dose 20 mg/kg, route po; details: in vivo
# [22] = MRT(0 to infinity) in Beagle dog at 20 mg/kg, po measured upto 24 hrs by LC-MS/MS analysis; format: ADME, organism-based, Canis lupus familiaris; details: in vivo
# [23] = MRT(0 to infinity) in Beagle dog at 0.4 mg/kg, iv measured upto 24 hrs by LC-MS/MS analysis; format: ADME, organism-based, Canis lupus familiaris; details: in vivo
# MX1 [24] = assay: Antitumor activity against human MX1 cells xenografted in athymic nu/nu mouse assessed as tumor growth inhibition at 12.5 to 25 mg/kg, po administered once daily for 5 days and measured on day 7 in presence of 50 mg/kg TMZ; format: functional; details: dose 12.5-25 mg/kg, time 7 day
# MX1 [25] = assay: Antitumor activity against human MX1 cells xenografted in athymic nu/nu mouse assessed as tumor growth inhibition at 12.5 mg/kg, po administered once daily for 5 days and measured on day 17 in presence of 50 mg/kg TMZ; format: functional; details: MX1, 408 h, time 17 day, read-out: TGI
# MDA-MB-436 [26] = assay: Antitumor activity against human MDA-MB-436 cells xenografted in athymic nu/nu mouse assessed as tumor growth inhibition at 20 to 80 mg/kg, po administered once daily for 17 days; format: functional; details: dose 20-80 mg/kg, time 17 day
# MDA-MB-436 [27] = assay: Antitumor activity against human MDA-MB-436 cells xenografted in po dosed athymic nu/nu mouse assessed as tumor growth inhibition administered once daily for 17 days; format: functional, organism-based; details: time 17.0 day
# U-87 MG [28] = assay: Antitumor activity against human U-87MG cells xenografted in BALB/c mouse assessed as reduction in tumor volume at 50 mg/kg, po administered once daily for 5 days and measured on day 8 by MRI scanner (reference value: 202 +/- 120.4 mm3); format: functional, U-87MG ATCC; details: time 8 day
# U-87 MG [29] = assay: Antitumor activity against human U-87MG cells xenografted in BALB/c mouse assessed as reduction in tumor volume at 50 mg/kg, po administered once daily for 5 days and measured on day 8 in presence of 30 mg/kg TMZ by MRI scanner (reference value: 202 +/- 120.4 mm3); format: functional, U-87MG ATCC; details: time 8 day
# U-87 MG [30] = assay: Antitumor activity against human U-87MG cells xenografted in BALB/c mouse assessed as reduction in tumor volume at 50 mg/kg, po administered once daily for 5 days and measured on day 32 in presence of 30 mg/kg TMZ by MRI scanner; format: functional, U-87MG ATCC; details: time 32 day
# U-87 MG [31] = assay: Antitumor activity against human U-87MG cells xenografted in BALB/c mouse assessed as T/C ratio at 50 mg/kg, po administered once daily for 5 days and measured upto 32 days in presence of 30 mg/kg TMZ by MRI scanner; format: functional, U-87MG ATCC; details: time <= 32 day
# Mus musculus [32] = assay: Toxicity in BALB/c mouse xenografted with human U-87MG cells assessed as effect on body weight at 50 mg/kg, po administered once daily for 5 days and measured on day 8 (reference value: 18.2 +/- 0.6 g); format: organism-based; details: in vivo, 192 h, time 8 day
# Mus musculus [33] = assay: Toxicity in BALB/c mouse xenografted with human U-87MG cells assessed as effect on body weight at 25 mg/kg, po administered once daily for 5 days and measured on day 8 in presence of 30 mg/kg TMZ (reference value: 18.8 +/- 0.7 g); format: organism-based; details: in vivo, 192 h, time 8 day
compound,measurement,setting,value
CC[C@@H]1CN(C(=O)c2cc(Cn3c(=O)[nH]c(=O)c4ccccc43)ccc2F)CCN1CC,inhibition,U-251 [1],Active
same,inhibition,T98G [2],Active
same,inhibition,U-251 [3],Active
same,inhibition,T98G [4],Active
same,inhibition,T98G [5],Active
same,Activity,U-87 MG [6],Active
same,Activity,U-251 [7],Active
same,Activity,A 172,Active
same,Activity,T98G [8],Active
same,Activity,U-251 [9],Active
same,Kd,[10],1.92 nM
same,Kd,[11],51.5 nM
same,T1/2,[12],75.7 min
same,T1/2,[13],5.48 min
same,Tmax,[14],30 min
same,Tmax,[15],30 min
same,Cmax,[16],208 ng/mL
same,Cmax,[17],6440 ng/mL
same,Cmax,[18],1250 ng/mL
same,AUC(0-t) at 24 h,[19],1410 ng·h/mL
same,AUC(0-inf),[20],593 ng·h/mL
same,AUC(0-inf),[21],338 ng·h/mL
same,MRT inf,[22],291 min
same,MRT inf,[23],85.8 min
same,TGI,MX1 [24],>90%
same,inhibition in vivo at 12.5 mg/kg,MX1 [25],71.5%
same,TGI,MDA-MB-436 [26],68%
same,Activity,MDA-MB-436 [27],Dose-dependent effect
same,Activity,U-87 MG [28],218.6 mm3
same,Activity,U-87 MG [29],0 mm3
same,Activity,U-87 MG [30],11.9 mm3
same,T/C,U-87 MG [31],14.1%
same,Activity,Mus musculus [32],15.3 g
same,Activity,Mus musculus [33],18.2 g
